Source: publication PMC8999917, “Structure–Activity Relationship of Synthetic Ginkgolic Acid Analogs for Treating Type 2 Diabetes by PTPN9 Inhibition” (International Journal of Molecular Sciences, 2022)

Key:
[1] = biological target: T1, GPR120 (Homo sapiens, UniProt Q5NUL3); assay: GPR120 SRE-Luc reporter gene assay in CHO cells; assay type: cell-based; conditions: 50 μM
T1 construct: host or cells: CHO cells
T1 sequence (Q5NUL3 1-361): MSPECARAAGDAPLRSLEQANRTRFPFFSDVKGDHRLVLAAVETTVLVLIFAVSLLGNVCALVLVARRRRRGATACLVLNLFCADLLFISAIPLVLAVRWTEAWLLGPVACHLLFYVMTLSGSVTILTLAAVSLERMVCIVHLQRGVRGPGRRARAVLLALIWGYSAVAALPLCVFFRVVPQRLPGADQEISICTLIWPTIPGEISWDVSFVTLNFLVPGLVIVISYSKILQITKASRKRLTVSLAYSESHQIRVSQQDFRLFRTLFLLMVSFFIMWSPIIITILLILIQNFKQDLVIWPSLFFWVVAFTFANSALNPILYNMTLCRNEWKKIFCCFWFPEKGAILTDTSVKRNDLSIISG
From the text: Glucose uptake is regulated by three major mechanisms. First, through the activation of the Akt pathway, which promotes GLUT4 translocation via the activation of the signaling cascade involving the insulin receptor substrate (IRS) family and PI3 kinase through […] or G-protein-coupled receptors (GPCRs); second, through the upregulation of AMPK phosphorylation, which increases glucose uptake by inducing GLUT4 translocation to the plasma membrane; third, through the promotion of GLUT4 expression by PPARγ ligands. […] However, these compounds may induce GLUT4 expression and improve insulin sensitivity in the treated cells through their interactions with GPCR and/or PPARγ. Among GPCRs highly expressed in 3T3-L1 adipocytes and C2C12 muscle cells, GPR120 is the receptor that is most closely associated with glucose uptake. […] This was performed following a previously described method. In brief, CHO cells were plated to 96-well white plates (REF3610, Corning Life Sciences, NY, USA) in DMEM (HyClone^TM, Cytivalifescience, Seoul, Korea) supplemented with 10% FBS and 1% penicillin at a density of 1.5 × 10^4 cells/well. […] After incubation for another 24 h, luciferase activity was measured using the dual-luciferase assay system (Promega Korea, Seoul, Korea) according to the manufacturer’s instructions. […]

[2] = test system: AMPK phosphorylation; assay: Western blot of AMPK phosphorylation in C2C12 myotubes; assay type: cell-based, mouse
Procedure: To further investigate the mechanism of action of 1e, we evaluated its effects on AMPK and AKT phosphorylation in C2C12 myotubes. […] In line with the results obtained in 3T3-L1 cells, in the absence of insulin, 1e had no effects on basal p-Akt expression levels (Figure 6A).
The expression levels of glucose uptake-related proteins were determined via Western blotting, as previously described. In brief, differentiated 3T3-L1 cells were plated in six-well plates at a 1.5 × 10^4 cells/well density in a final volume of 2 mL. Then, the cells were incubated in the presence of DMSO or different concentrations of the compounds and harvested using a RIPA buffer (Sigma-Aldrich, Saint Louis, MS, USA) and a protease inhibitor cocktail (Roche Korea, Seoul, Korea) after 1 h of incubation. Equivalent amounts of proteins (20 µg) from each lysate were separated by 10% SDS-PAGE and transferred onto PVDF membranes (Merk KgaA, Darmstadt, Germany), where they were maintained for 120 min at 200 mA. […] Secondary antibodies were added to the membranes at a concentration of 1:2000 for 1 h at room temperature, and immunoreactive bands were detected via ECL (GE Healthcare Korea Co., Ltd., Incheon, Korea). […]

[3] = test system: Akt phosphorylation; assay: Western blot of Akt phosphorylation in mature 3T3-L1 adipocytes; assay type: cell-based, mouse; conditions: compound only group and insulin co-treatment group
Procedure: To further elucidate the pathway involved in 1e-mediated glucose uptake promotion, AMPK and Akt phosphorylation in mature 3T3-L1 adipocytes was evaluated via Western blotting following treatment with 5 or 10 µM 1e for 1 h.
The expression levels of glucose uptake-related proteins were determined via Western blotting, as previously described. In brief, differentiated 3T3-L1 cells were plated in six-well plates at a 1.5 × 10^4 cells/well density in a final volume of 2 mL. Then, the cells were incubated in the presence of DMSO or different concentrations of the compounds and harvested using a RIPA buffer (Sigma-Aldrich, Saint Louis, MS, USA) and a protease inhibitor cocktail (Roche Korea, Seoul, Korea) after 1 h of incubation. Equivalent amounts of proteins (20 µg) from each lysate were separated by 10% SDS-PAGE and transferred onto PVDF membranes (Merk KgaA, Darmstadt, Germany), where they were maintained for 120 min at 200 mA. The membranes were blocked with 5% skim milk for 1 h at room temperature in 0.1% TBST and then probed with primary antibodies at different concentrations in 0.1% BSA overnight at 4 °C according to the manufacturer’s instructions. Secondary antibodies were added to the membranes at a concentration of 1:2000 for 1 h at room temperature, and immunoreactive bands were detected via ECL (GE Healthcare Korea Co., Ltd., Incheon, Korea). […]

Structure (SMILES) | GPR120 transcriptional activity (SRE-Luc) [1] | AMPK phosphorylation [2] | Akt phosphorylation levels [3]
CCCCCCCCCCCCCCCOc1cccc(O)c1C(=O)O [Compound 1f] | No significant change | – | –
CCCCCCCCCCCCCOc1cccc(O)c1C(=O)O [Compound 1e] | No significant change | significantly upregulated AMPK phosphorylation in a concentration-dependent manner | no significant change
